# Results published in PubChem BioAssay AID248 (DTP/NCI, 2004).
# Several values for one entry are separate records, joined by “and”; a condition that tells them apart may be missing. Equal values may be shown once. Inconclusive results and toxic doses are left out.
# Test system: L1210 leukemia ip in BDF1 mice, survival T/C
# Test: NCI In Vivo Anticancer Drug Screen. Data for tumor model L1210 Leukemia (intraperitoneal) in B6D2F1 (BDF1) mice
# Conditions: endpoint: mean survival time, higher = longer survival
# Summary of the method: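 Survival endpoint. Drug-treated group vs vehicle group, expressed as T divided by C. Tumor passaged by transplantation.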
# [1] = dose: 100.0 mg/kg/injection, schedule: Q01DX009 (ip), vehicle: Klucel (hydroxypropylcellulose) (HPC)
# [2] = dose: 100.0 mg/kg/injection, schedule: Q04DX003 (ip), vehicle: Klucel (hydroxypropylcellulose) (HPC)
# [3] = dose: 200.0 mg/kg/injection, schedule: Q04DX003 (ip), vehicle: Klucel (hydroxypropylcellulose) (HPC)
# [4] = dose: 200.0 mg/kg/injection, schedule: Q01DX009 (ip), vehicle: Klucel (hydroxypropylcellulose) (HPC)
# [5] = dose: 400.0 mg/kg/injection, schedule: Q01DX009 (ip), vehicle: Klucel (hydroxypropylcellulose) (HPC)
# [6] = dose: 100.0 mg/kg/injection, schedule: Q01DX001 (ip), vehicle: saline
# [7] = dose: 200.0 mg/kg/injection, schedule: Q01DX001 (ip), vehicle: saline
# [8] = dose: 400.0 mg/kg/injection, schedule: Q01DX001 (ip), vehicle: saline
# [9] = dose: 100.0 mg/kg/injection, schedule: Q01DX001 (ip), vehicle: Klucel (hydroxypropylcellulose) (HPC)
# [10] = dose: 200.0 mg/kg/injection, schedule: Q01DX001 (ip), vehicle: Klucel (hydroxypropylcellulose) (HPC)
# [11] = dose: 400.0 mg/kg/injection, schedule: Q01DX001 (ip), vehicle: Klucel (hydroxypropylcellulose) (HPC)
# [12] = dose: 400.0 mg/kg/injection, schedule: Q04DX003 (ip), vehicle: Klucel (hydroxypropylcellulose) (HPC)
compound,measurement,setting,value
COc1ccc(OC)c(CCc2cc(OC)ccc2OC)c1,T/C,"dose: 12.5 mg/kg/injection, schedule: Q01DX009 (ip), vehicle: other",93 % of control
same,T/C,"dose: 25.0 mg/kg/injection, schedule: Q01DX009 (ip), vehicle: other",96 % of control
same,T/C,"dose: 50.0 mg/kg/injection, schedule: Q01DX009 (ip), vehicle: other",98 % of control
CCCCCCCCCCCCN(CCC(=O)O)S(=O)(=O)O,T/C,"dose: 12.5 mg/kg/injection, schedule: Q04DX003 (ip), vehicle: Klucel (hydroxypropylcellulose) (HPC)",101 % of control
same,T/C,"dose: 25.0 mg/kg/injection, schedule: Q01DX009 (ip), vehicle: Klucel (hydroxypropylcellulose) (HPC)",94 % of control
same,T/C,"dose: 25.0 mg/kg/injection, schedule: Q04DX003 (ip), vehicle: Klucel (hydroxypropylcellulose) (HPC)",98 % of control
same,T/C,"dose: 50.0 mg/kg/injection, schedule: Q01DX009 (ip), vehicle: Klucel (hydroxypropylcellulose) (HPC)",96 % of control
same,T/C,"dose: 50.0 mg/kg/injection, schedule: Q04DX003 (ip), vehicle: Klucel (hydroxypropylcellulose) (HPC)",102 % of control
same,T/C,[1],94 % of control
same,T/C,[2],97 % of control
O=C(O)c1cccc2c1-c1ccc(Cl)cc1C2,T/C,[2],104 % of control
same,T/C,[3],102 % of control
Cc1cc2c(cc1C)N(C(=O)CCl)CC(=O)N2,T/C,"dose: 9.37 mg/kg/injection, schedule: Q01DX009 (ip), vehicle: acetone",95 % of control
same,T/C,"dose: 18.75 mg/kg/injection, schedule: Q01DX009 (ip), vehicle: acetone",93 % of control
same,T/C,"dose: 18.75 mg/kg/injection, schedule: Q04DX003 (ip), vehicle: saline",96 % of control
same,T/C,"dose: 37.5 mg/kg/injection, schedule: Q01DX009 (ip), vehicle: acetone",93 % of control
same,T/C,"dose: 37.5 mg/kg/injection, schedule: Q04DX003 (ip), vehicle: saline",98 % of control
same,T/C,"dose: 75.0 mg/kg/injection, schedule: Q01DX001 (ip), vehicle: saline",113 % of control
same,T/C,"dose: 75.0 mg/kg/injection, schedule: Q04DX003 (ip), vehicle: saline",93 % of control
c1ccc(N=Nc2ccc(C3=NCCO3)cc2)cc1,T/C,[1],91 % of control
same,T/C,"dose: 100.0 mg/kg/injection, schedule: Q04DX003 (ip), vehicle: saline",95 % of control
same,T/C,[4],88 % of control
same,T/C,"dose: 200.0 mg/kg/injection, schedule: Q04DX003 (ip), vehicle: saline",101 % of control
same,T/C,[5],87 % of control
same,T/C,"dose: 400.0 mg/kg/injection, schedule: Q04DX003 (ip), vehicle: saline",94 % of control
COc1cccc(C2CCCCC2O)c1 (configuration not stated),T/C,"dose: 50.0 mg/kg/injection, schedule: Q01DX009 (ip), vehicle: saline with Tween-80",90 % of control
same,T/C,"dose: 100.0 mg/kg/injection, schedule: Q01DX009 (ip), vehicle: saline with Tween-80",93 % of control
same,T/C,"dose: 200.0 mg/kg/injection, schedule: Q01DX009 (ip), vehicle: saline with Tween-80",96 % of control
NC(CSC(c1ccccc1)c1ccccc1)C(=O)O (configuration not stated),T/C,"dose: 10.0 mg/kg/injection, schedule: Q01DX015 (ip), vehicle: saline",97 % of control
same,T/C,"dose: 20.0 mg/kg/injection, schedule: Q01DX015 (ip), vehicle: saline",91 % of control
same,T/C,"dose: 40.0 mg/kg/injection, schedule: Q01DX015 (ip), vehicle: saline",95 % of control
same,T/C,"dose: 50.0 mg/kg/injection, schedule: Q01DX001 (ip), vehicle: carboxymethylcellulose (CMC)",98 % of control
same,T/C,"dose: 79.0 mg/kg/injection, schedule: Q01DX015 (ip), vehicle: saline",92 % of control
same,T/C,"dose: 100.0 mg/kg/injection, schedule: Q01DX001 (ip), vehicle: carboxymethylcellulose (CMC)",101 % of control
same,T/C,[6],101 % of control
same,T/C,"dose: 158.0 mg/kg/injection, schedule: Q01DX015 (ip), vehicle: saline",95 % of control
same,T/C,"dose: 200.0 mg/kg/injection, schedule: Q01DX001 (ip), vehicle: carboxymethylcellulose (CMC)",87 % of control
same,T/C,[7],100 % of control
same,T/C,"dose: 316.0 mg/kg/injection, schedule: Q01DX015 (ip), vehicle: saline",98 % of control
same,T/C,"dose: 400.0 mg/kg/injection, schedule: Q01DX001 (ip), vehicle: carboxymethylcellulose (CMC)",87 % of control
same,T/C,[8],101 % of control
same,T/C,"dose: 632.0 mg/kg/injection, schedule: Q01DX015 (ip), vehicle: saline",97 % of control
CC1(C)CN=C(c2ccc([N+](=O)[O-])cc2)S1,T/C,[9],100 % of control
same,T/C,[10],102 % of control
same,T/C,[11],100 % of control
CCOc1ccc(/C=C2\C=Nc3ccccc32)cc1,T/C,[1],91 % of control
same,T/C,[4],99 % of control
COC(=O)c1[nH]cnc1/N=N/N(C)C.[Cl][Cu][Cl],T/C,"dose: 9.0 mg/kg/injection, schedule: Q01DX009 (ip), vehicle: saline",106 % of control and 115 % of control
same,T/C,"dose: 13.0 mg/kg/injection, schedule: Q01DX009 (ip), vehicle: saline",107 % of control and 108 % of control
same,T/C,"dose: 20.0 mg/kg/injection, schedule: Q01DX009 (ip), vehicle: saline",122 % of control
O=C1C(Cl)=C(Cl)C(=O)C2=C1C1c3ccccc3C2c2ccccc21,T/C,[2],86 % of control
same,T/C,[3],94 % of control
same,T/C,[12],89 % of control
CN=[N+]([O-])c1ccccc1,T/C,[6],100 % of control
same,T/C,[7],100 % of control
same,T/C,[8],97 % of control
N=C(N)c1cccc(NC(=O)c2ccc(C(=O)Nc3cccc(C(=N)N)c3)c([N+](=O)[O-])c2)c1,T/C,"dose: 1.0 mg/kg/injection, schedule: Q01DX015 (ip), vehicle: water",96 % of control
same,T/C,"dose: 2.0 mg/kg/injection, schedule: Q01DX015 (ip), vehicle: water",96 % of control
same,T/C,"dose: 4.0 mg/kg/injection, schedule: Q01DX015 (ip), vehicle: water",102 % of control
same,T/C,"dose: 8.0 mg/kg/injection, schedule: Q01DX015 (ip), vehicle: water",102 % of control and 109 % of control
same,T/C,"dose: 16.0 mg/kg/injection, schedule: Q01DX015 (ip), vehicle: water",115 % of control
CCC#CC#CCC,T/C,[6],97 % of control
same,T/C,"dose: 100.0 mg/kg/injection, schedule: Q01DX009 (ip), vehicle: saline",96 % of control
same,T/C,[7],108 % of control
same,T/C,[8],112 % of control
NC(=O)Nc1cc(NC(N)=O)cc(N(CCO)CCO)c1,T/C,"dose: 100.0 mg/kg/injection, schedule: Q01DX009 (ip), vehicle: water",97 % of control
same,T/C,"dose: 100.0 mg/kg/injection, schedule: Q04DX003 (ip), vehicle: water",102 % of control
same,T/C,"dose: 200.0 mg/kg/injection, schedule: Q01DX009 (ip), vehicle: water",97 % of control
same,T/C,"dose: 200.0 mg/kg/injection, schedule: Q04DX003 (ip), vehicle: water",102 % of control
same,T/C,"dose: 400.0 mg/kg/injection, schedule: Q01DX009 (ip), vehicle: water",103 % of control
same,T/C,"dose: 400.0 mg/kg/injection, schedule: Q04DX003 (ip), vehicle: water",104 % of control
COc1ccc(-c2sc(/N=C/c3cc(Br)cc(Br)c3O)c(C#N)c2C)cc1OC,T/C,"dose: 100.0 mg/kg/injection, schedule: Q01DX001 (ip), vehicle: saline with Tween-80",89 % of control
same,T/C,"dose: 100.0 mg/kg/injection, schedule: Q04DX003 (ip), vehicle: saline with Tween-80",93 % of control
same,T/C,"dose: 200.0 mg/kg/injection, schedule: Q01DX001 (ip), vehicle: saline with Tween-80",91 % of control
same,T/C,"dose: 200.0 mg/kg/injection, schedule: Q04DX003 (ip), vehicle: saline with Tween-80",98 % of control and 90 % of control
same,T/C,"dose: 400.0 mg/kg/injection, schedule: Q04DX003 (ip), vehicle: saline with Tween-80",90 % of control
COc1ccc(C2NC(=O)c3ccccc3N2)c(OC)c1OC (configuration not stated),T/C,[1],105 % of control
same,T/C,[2],97 % of control
same,T/C,[4],100 % of control
same,T/C,[3],101 % of control
same,T/C,[5],106 % of control
same,T/C,[12],102 % of control
Cc1cc(C)c(Br)cc1N,T/C,[9],90 % of control
same,T/C,[10],95 % of control
same,T/C,[11],102 % of control
O=NNc1ccccn1,T/C,"dose: 6.25 mg/kg/injection, schedule: Q04DX003 (ip), vehicle: saline",111 % of control
same,T/C,"dose: 8.0 mg/kg/injection, schedule: Q01DX009 (ip), vehicle: saline",116 % of control
same,T/C,"dose: 8.0 mg/kg/injection, schedule: Q04DX003 (ip), vehicle: saline",121 % of control and 123 % of control
same,T/C,"dose: 12.0 mg/kg/injection, schedule: Q01DX009 (ip), vehicle: saline",106 % of control
same,T/C,"dose: 12.0 mg/kg/injection, schedule: Q04DX003 (ip), vehicle: saline",156 % of control
same,T/C,"dose: 18.0 mg/kg/injection, schedule: Q01DX009 (ip), vehicle: saline",119 % of control
same,T/C,"dose: 50.0 mg/kg/injection, schedule: Q04DX003 (ip), vehicle: saline",114 % of control
